Experiments:
IL17A = target: T1, IL17A (Homo sapiens, UniProt Q16552); test: Surface Plasmon Resonance (SPR) analysis of compound interactions with IL17A; conditions: SPR binding to IL17A
T1 sequence (Q16552 24-155): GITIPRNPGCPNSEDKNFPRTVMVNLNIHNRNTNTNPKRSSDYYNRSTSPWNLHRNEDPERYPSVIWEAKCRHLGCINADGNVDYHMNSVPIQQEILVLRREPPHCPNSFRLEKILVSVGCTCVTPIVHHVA
Method in brief: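 His-tagged IL17A captured on a Ni-NTA chip; five 2- or 3-fold compound dilutions from 50 μM injected for 180 s, 120 s dissociation, in HEPES-saline buffer with 0.5% DMSO. Baseline-subtracted sensorgrams fitted 1:1 for ka, kd and KD; Kd also derived from binding extent per concentration.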

[1] = tested on: IL-17-induced GROα secretion from HT-29 cells; test: HT-29 cellular assay (IL-17-induced GROα secretion); assay type: cell-based; conditions: Homo sapiens
Experimental: To test the ability of a compound of the invention to neutralize or antagonize IL-17 bioactivity, the following cell-based assay was used. IL-17 can stimulate epithelial cells and other cells to secrete GROα. The ability of a compound of the invention to neutralize IL-17-induced GROα secretion from the human colorectal adenocarcinoma epithelial cell line HT-29 is tested in this assay.
HT-29 cells (human colorectal adenocarcinoma epithelial cells, ATCC #HTB-38), were maintained in culture/assay medium in tissue culture-treated flasks using standard techniques. HT-29 cells were grown in tissue culture flasks until they were 50-80% confluent on the day before the assay. The day before the assay, the cells were detached from the culture flasks with trypsin+EDTA. The trypsin was inactivated with complete assay medium. HT-29 cells were then centrifuged at 500×g for 5 minutes at room temperature. The cell pellet was then re-suspended in Defined Keratinocyte SFM (Invitrogen #10766019)+10% FCS and 50,000 HT-29 cells (in 100 μl) were added to each treatment well of the 96-well plates. The 96-well plates were placed in a tissue culture incubator (37° C., 5% CO2) overnight. The next day, the media was removed from the cells and the cells were washed twice with Defined Keratinocyte SFM. In a separate 96-well plate, compounds to be tested were serially diluted in Defined Keratinocyte SFM and run in triplicate in 100 μL total volume. To these compound samples were then added 100 μL of human IL-17 at a concentration of 20 ng/mL in Defined Keratinocyte SFM for serum-free assays. 150 μL of the compound/IL-17 mixture was then added to the cells from which the media has previously been removed. The cells were grown for 48 hours in Defined Keratinocyte SFM in a tissue culture incubator (37° C., 5% CO2).
At the end of the incubation, the plates are centrifuged (500×g for 5 minutes at room temperature), and the cell culture media is transferred to polypropylene 96-well plates. The supernatant was used neat in the ELISA. GROα levels are measured with a GROα sandwich ELISA (R+D Systems DuoSet #DY275E), as per the manufacturer's instructions. The ELISA plates were previously coated with mAb 275 (R+D Systems) at 4 μg/mL. GROα is detected using biotinylated goat anti-human GROα (R+D Systems BAF275) at 200 ng/mL using TMB as a substrate. At the end of the ELISA reactions, plates are read at 450 nm on a microplate reader and compared to a standard calibration curve.

[2] = target: T2, recombinant human IL17a (binding to its receptor IL17R) (Homo sapiens, UniProt Q16552); test: IL-17 competition ELISA I (IL17a coated, IL17R/Fc binding)
T2 construct: purchased R&D Systems 317-ILB (IL17a); 177-IR (IL17R/Fc)
T2 sequence (Q16552 20-155 limits assumed): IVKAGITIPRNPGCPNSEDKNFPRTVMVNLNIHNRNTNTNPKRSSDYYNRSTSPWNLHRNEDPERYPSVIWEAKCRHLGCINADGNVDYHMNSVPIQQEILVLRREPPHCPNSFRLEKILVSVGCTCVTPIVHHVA
Method in brief: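 Plates coated with 20 nM recombinant human IL17a received compound dilutions and 12 nM IL17R/Fc (final) for 30 min at room temperature. Bound receptor was detected with HRP anti-human Fc and TMB, read at 450 nm. IC50 came from a 4-parameter logistic fit between no-competitor and blank controls.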

[3] = tested on: IL-17A induced secretion of IL-6 in primary human RASF cells; test: Inhibition of IL17A induced secretion of IL6 in human rheumatoid arthritis synovial fibroblast (RASF) cells; assay type: cell-based; conditions: Homo sapiens, Fibroblast
Method in brief: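 Primary RASF cells (passage 2-8) stimulated 20 h at 37 °C with rhIL-17A (30 ng/mL) pre-incubated 1 h with compound (final 0.03-25 μM, 0.25% DMSO). Supernatant IL-6 measured by ELISA, normalized to WST1 viability; triplicates.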

[4] = target: T3, biotinylated human IL-17 (binding to IL17R/Fc) (Homo sapiens, UniProt Q16552); test: IL-17 competition ELISA II (captured IL17R/Fc, biotinylated IL-17)
T3 construct: purchased R&D Systems 317-ILB (IL-17, biotinylated); 177-IR (IL17R/Fc)
T3 sequence (Q16552 20-155 limits assumed): T2 sequence (Q16552 20-155 limits assumed)
Method in brief: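 Competition read-out: absorbance at 450 nm after streptavidin-HRP/TMB detection, fitted to a 4-parameter logistic model bounded by no-competitor and blank wells to give IC50. Compound was serially diluted 5-fold from 1 μM alongside 20 nM (stock) biotinylated IL-17 on IL17R/Fc (10 nM) captured via goat anti-human IgG, 30 min at room temperature.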

DNFB-treated BALB/c mice = test: Murine model of delayed hypersensitivity (DNFB-induced ear edema); assay type: in vivo, mouse; conditions: po; for Reduction in edema (%): ear weight 24 h after DNFB challenge; for IFNγ Reduction (%) / IL6 Reduction (%) / CXCL1 Reduction (%): plasma
Experimental: We used a murine model of fluorodinitrobenzene (DNFB)-induced ear edema to test the anti-inflammatory activity of both orally dosed and intraperitoneally dosed exemplary compounds of the invention. BALB/c mice (Harlan Sprague-Dawley, Inc., male, 6-8 weeks old) were topically treated on their shaved abdomen with 30 μL of 0.5% 1-fluoro-2,4-dinitrobenzene (DNFB) (4:1 acetone:olive oil) once on Day 0 and once on Day 1.
For oral dosing (“PO”), exemplary compounds of the invention were either suspended at 3 mg/mL in 20% Cremophor EL (Sigma) (20:80; Cremophor:water) or dissolved at 1 mg/mL or 3 mg/mL in D-α-tocopherol polyethylene glycol 1000 succinate (TPGS; Sigma)/PEG-400/water (20:60:20). For intraperitoneal dosing (“IP”), exemplary compounds of the invention were dissolved in DMSO at a concentration of 5 mg/mL. On day 7, the test compound was administered (PO at either 10 mg/kg or 30 mg/kg; IP at 1, 3, or 10 mg/kg) to DNFB-treated mice. Commercially available anti-mouse IL-17A (BioLegend) administered intraperitoneally at 5 mg/kg in PBS was used as a positive control. Thirty minutes later, 20 μL of 0.2% DNFB was applied to the right ear of animals and vehicle ([…]:olive oil) was applied to the left ear. One and four hours after DNFB challenge, a subset of mice was exsanguinated and plasma prepared from the blood. Twenty-four hours after challenge, the remaining mice were euthanized, and their ears were removed and weighed to determine the amount of edema. Plasma was assayed for interleukin-6, TNF-α, CXCL1, and interferon-γ concentrations using commercially-available assays.

Structure (SMILES) | Kd (IL17A) | IC50 [2] | IC50 [3] | other results
COC(=O)[C@H]1CCCCNC(=O)CCCNC(=O)[C@@H](Cc2ccc(NC(=O)[C@H](Cc3ccccc3F)NC(=O)Cc3ccccc3)cc2)NC(=O)CC2(CCCC2)CC(=O)N1 [Compound 107] | 100 to 1000 nM |  |  | IC50 [1]: > 10000 nM
COC(=O)[C@@H]1CCCCNC(=O)CNC(=O)[C@@H](Cc2ccc(NC(=O)[C@H](Cc3ccccc3F)NC(=O)Cc3ccccc3)cc2)NC(=O)CC2(CCCC2)CC(=O)N1 [Compound 108] | < 100 nM |  |  | IC50 [1]: 1000 to 10000 nM
COC(=O)[C@@H]1CCCCNC(=O)CCNC(=O)[C@@H](Cc2ccc(NC(=O)[C@H](Cc3ccccc3F)NC(=O)Cc3ccccc3)cc2)NC(=O)CC2(CCCC2)CC(=O)N1 [Compound 109] | 100 to 1000 nM |  |  | IC50 [1]: 1000 to 10000 nM
COC(=O)[C@@H]1CCCCNC(=O)CCCCNC(=O)[C@@H](Cc2ccc(NC(=O)[C@H](Cc3ccccc3F)NC(=O)Cc3ccccc3)cc2)NC(=O)CC2(CCCC2)CC(=O)N1 [Compound 110] | 100 to 1000 nM |  |  | IC50 [1]: > 10000 nM
COC(=O)[C@@H]1CCCCNC(=O)CCCNC(=O)[C@@H](Cc2ccc(NC(=O)[C@H](Cc3ccccc3Br)NC(=O)Cc3ccccc3)cc2)NC(=O)CC2(CCCC2)CC(=O)N1 [Compound 120] |  |  |  | IC50 [1]: 1000 to 10000 nM
CC[C@H](C)[C@H](NC(=O)Cc1ccccc1)C(=O)Nc1ccc(C[C@H]2NC(=O)CC3(CCCC3)CC(=O)N[C@H](C(=O)OC)CCCCNC(=O)CCCNC2=O)cc1 [Compound 122] | 1000 to 10000 nM | 1000 to 10000 nM | 1000 to 10000 nM | 
CC(=O)N[C@@H](Cc1ccccc1Cl)C(=O)Nc1ccc(C[C@H]2NC(=O)CC3(CCCC3)CC(=O)NCCCCCNC(=O)CNC2=O)cc1 [Compound 153] | < 100 nM | < 100 nM | 1000 to 10000 nM | 
O=C1CNC(=O)[C@@H](Cc2ccc(NC(=O)[C@H](Cc3ccccc3Cl)NC(=O)Cc3ccccc3)cc2)NC(=O)CC2(CCCC2)CC(=O)N(CCO)CCCCCN1 [Compound 168] | < 100 nM |  | 1000 to 10000 nM | 
CC(=O)N[C@@H](Cc1ccccc1Cl)C(=O)Nc1ccc(C[C@H]2NC(=O)CC3(CCCC3)CC(=O)N(CCO)CCCCCNC(=O)CNC2=O)cc1 [Compound 169] | < 100 nM | 100 to 1000 nM | > 10000 nM | 
O=C1CNC(=O)[C@@H](Cc2ccc(NC(=O)[C@@H](NC(=O)Cc3ccc(O)cc3)C3CCCCC3)cc2)NC(=O)CC2(CCCC2)CC(=O)NCCCCCN1 [Compound 192] | < 100 nM | < 100 nM | 1000 to 10000 nM | 
O=C1CNC(=O)[C@@H](Cc2ccc(NC(=O)[C@H](Cc3ccccc3Cl)NC(=O)c3ccccn3)cc2)NC(=O)CC2(CCCC2)CC(=O)NCCCCCN1 [Compound 195] | 100 to 1000 nM | 100 to 1000 nM |  | IC50 [4]: < 100 nM
O=C1CNC(=O)[C@@H](Cc2ccc(NC(=O)[C@H](Cc3ccccc3Cl)NC(=O)c3cncnc3)cc2)NC(=O)CC2(CCCC2)CC(=O)NCCCCCN1 [Compound 201] | < 100 nM | 100 to 1000 nM | > 10000 nM | 
CC(C)(C)C(=O)N[C@@H](Cc1ccccc1Cl)C(=O)Nc1ccc(C[C@H]2NC(=O)CC3(CCCC3)CC(=O)NCCCCCNC(=O)CNC2=O)cc1 [Compound 206] | < 100 nM | < 100 nM | 1000 to 10000 nM | 
O=C1CNC(=O)[C@@H](Cc2ccc(NC(=O)[C@H](Cc3ccccc3Cl)NC(=O)Cc3ccccc3)cc2)NC(=O)CC2(CCCC2)CC(=O)NCCOCCN1 [Compound 209] | < 100 nM | < 100 nM | 1000 to 10000 nM | 
O=C1CNC(=O)[C@@H](Cc2ccc(NC(=O)[C@H](Cc3ccccc3Br)NC(=O)Cc3ccc(O)cc3)cc2)NC(=O)CC2(CCCC2)CC(=O)NCCCCCN1 [Compound 211] | < 100 nM | < 100 nM | 1000 to 10000 nM | 
O=C1CNC(=O)[C@@H](Cc2ccc(NC(=O)[C@H](Cc3ccccc3Cl)NC(=O)Cc3ccccc3O)cc2)NC(=O)CC2(CCCC2)CC(=O)NCCCCCN1 [Compound 216] | < 100 nM | < 100 nM | 1000 to 10000 nM | 
O=C1CNC(=O)[C@@H](Cc2ccc(NC(=O)[C@H](Cc3ccccc3Cl)NC(=O)c3ccc(F)cc3)cc2)NC(=O)CC2(CCCC2)CC(=O)NCCCCCN1 [Compound 227] | < 100 nM | 100 to 1000 nM | 1000 to 10000 nM | 
O=C1CNC(=O)[C@@H](Cc2ccc(NC(=O)[C@H](Cc3cscn3)NC(=O)Cc3ccccc3)cc2)NC(=O)CC2(CCCC2)CC(=O)NCCCCCN1 [Compound 232] | 100 to 1000 nM | 1000 to 10000 nM |  | 
O=C1CNC(=O)[C@@H](Cc2ccc(NC(=O)[C@H](Cc3csc4ccccc34)NC(=O)Cc3ccccc3)cc2)NC(=O)CC2(CCCC2)CC(=O)NCCCCCN1 [Compound 233] | < 100 nM | 100 to 1000 nM |  | 
COC(=O)N[C@@H](Cc1ccccc1Cl)C(=O)Nc1ccc(C[C@H]2NC(=O)CC3(CCCC3)CC(=O)NCCOCCOCCNC2=O)cc1 [Compound 465] |  |  |  | IC50 [4]: < 100 nM; Reduction in edema (%) (DNFB-treated BALB/c mice; 30 mg/kg): 23.5%; IFNγ Reduction (%) (DNFB-treated BALB/c mice; 30 mg/kg): 47.4%; IL6 Reduction (%) (DNFB-treated BALB/c mice; 30 mg/kg): 42.5%
O=C1CC2(CCCC2)CC(=O)N[C@H](Cc2ccc(NC(=O)[C@H](Cc3ccccc3Cl)NC(=O)C(F)(F)c3ccccc3)cc2)C(=O)NCCOCCOCCN1 [Compound 475] |  |  | 100 to 1000 nM | IC50 [4]: < 100 nM; Reduction in edema (%) (DNFB-treated BALB/c mice; 10 mg/kg): 19.2%; CXCL1 Reduction (%) (DNFB-treated BALB/c mice; 10 mg/kg): 61.4%; IFNγ Reduction (%) (DNFB-treated BALB/c mice; 10 mg/kg): 11.3%; IL6 Reduction (%) (DNFB-treated BALB/c mice; 10 mg/kg): 29.7%; Reduction in edema (%) (DNFB-treated BALB/c mice; 30 mg/kg): 49.5%; CXCL1 Reduction (%) (DNFB-treated BALB/c mice; 30 mg/kg): 63.0%; IFNγ Reduction (%) (DNFB-treated BALB/c mice; 30 mg/kg): 45.0%; IL6 Reduction (%) (DNFB-treated BALB/c mice; 30 mg/kg): 51.9%

— patent US9284283B2, “Macrocyclic compounds for modulating IL-17” (ENSEMBLE THERAPEUTICS CORPORATION, priority 2012, dated 2016)
